Measured values as given in PMC5241705 (ACS Infectious Diseases, 2016).
≈ marks a conversion by molar mass, not a printed value. Entries after “also recorded” stand apart in the source; their conditions may differ.

Tests used:
Mtb H37Rv [1] = assay: Checkerboard assay, purine supplementation versus VCC234718; assay type: cell-based, Mycobacterium tuberculosis; details: for MIC90: Mycobacterium tuberculosis, H37RV
[2] = tested on: Mtb guaB2-guaB3 Tet-OFF attB::guaB3 and guaB2-guaB3 Tet-OFF; assay type: cell-based, Mycobacterium tuberculosis
human ERG channel = human ERG channel (Homo sapiens, UniProt Q12809); assay: cell-based
Mtb SRMV2.6 = assay: microbe, parasite or virus in culture; assay type: cell-based, Mycobacterium tuberculosis
[3] = tested on: Mtb-infected MRC-5 fibroblasts; assay type: cell-based, human; details: concentration up to 50 μM
[4] = tested on: Mtb H37Rv attB::guaB2-guaB3; assay: MIC by AlamarBlue assay; assay type: cell-based; details: Mycobacterium tuberculosis
Mtb GuaB2 = Mtb GuaB2 (Mycobacterium tuberculosis, UniProt P9WKI7); assay: biochemical
Mtb H37Rv [5] = assay: Time-kill kinetics; assay type: cell-based; details: Mycobacterium tuberculosis, read-out: 99% minimum bactericidal concentration (MBC99)
[6] = tested on: Mtb-infected activated THP-1 macrophages; assay type: cell-based, human
Mtb SRMV2.10 = assay: microbe, parasite or virus in culture; assay type: cell-based; details: Mycobacterium tuberculosis
Mtb SRMV2.3 = assay: microbe, parasite or virus in culture; assay type: cell-based; details: Mycobacterium tuberculosis
replicating H37Rv = assay: microbe, parasite or virus in culture; assay type: cell-based, Mycobacterium tuberculosis
Mtb H37Rv attB::guaB2 = assay: MIC by AlamarBlue assay; assay type: cell-based; details: Mycobacterium tuberculosis
[7] = tested on: Mtb SRMV2.6 attB::guaB2-guaB3; assay: MIC by AlamarBlue assay; assay type: cell-based; details: Mycobacterium tuberculosis
[8] = tested on: Mtb guaB2-guaB3 Tet-OFF attB::guaB3; assay: microbe, parasite or virus in culture; assay type: cell-based, Mycobacterium tuberculosis; details: for effect of guaB2 silencing on susceptibility: data not shown
Mtb SRMV2.6 attB::guaB2 = assay: MIC by AlamarBlue assay; assay type: cell-based; details: Mycobacterium tuberculosis
[9] = tested on: PDIM-deficient H37Rv strain (H37RvJO); assay: MIC by AlamarBlue assay; assay type: cell-based; details: Mycobacterium tuberculosis
[10] = tested on: Caco-2/TC-7 cell monolayers; details: threshold value 20 × 10^–7 cm s^–1
[11] = tested on: nonreplicating, streptomycin-starved Mtb 18b or 18b-Lux; assay: Activity against nonreplicating bacilli; assay type: cell-based, Mycobacterium tuberculosis; details: concentrations up to 20 μM
Mtb H37Rv (H37RvMA) = assay: MIC by broth microdilution, AlamarBlue assay; assay type: cell-based; details: Mycobacterium tuberculosis
[12] = human and rodent liver microsomes and human liver primary hepatocytes
[13] = tested on: Corynebacterium glutamicum; details: phenotypic screen; cited from earlier work
[14] = human primary hepatocytes

Chain of Mtb GuaB2 (P9WKI7 whole entry, looked up): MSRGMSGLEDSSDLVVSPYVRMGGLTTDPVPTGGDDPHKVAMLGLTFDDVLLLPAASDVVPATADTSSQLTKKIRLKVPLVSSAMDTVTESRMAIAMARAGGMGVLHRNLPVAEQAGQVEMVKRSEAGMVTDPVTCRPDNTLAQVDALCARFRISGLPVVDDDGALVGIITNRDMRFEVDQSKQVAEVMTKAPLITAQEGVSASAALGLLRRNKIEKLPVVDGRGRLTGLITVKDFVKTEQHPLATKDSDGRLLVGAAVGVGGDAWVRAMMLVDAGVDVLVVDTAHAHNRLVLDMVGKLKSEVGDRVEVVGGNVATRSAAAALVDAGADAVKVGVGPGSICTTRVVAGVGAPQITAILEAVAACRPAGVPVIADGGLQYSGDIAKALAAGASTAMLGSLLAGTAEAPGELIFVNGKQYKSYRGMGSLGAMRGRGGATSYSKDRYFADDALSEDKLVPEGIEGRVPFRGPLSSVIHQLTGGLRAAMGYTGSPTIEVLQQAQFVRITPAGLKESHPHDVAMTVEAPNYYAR
Chain of human ERG channel (Q12809 whole entry): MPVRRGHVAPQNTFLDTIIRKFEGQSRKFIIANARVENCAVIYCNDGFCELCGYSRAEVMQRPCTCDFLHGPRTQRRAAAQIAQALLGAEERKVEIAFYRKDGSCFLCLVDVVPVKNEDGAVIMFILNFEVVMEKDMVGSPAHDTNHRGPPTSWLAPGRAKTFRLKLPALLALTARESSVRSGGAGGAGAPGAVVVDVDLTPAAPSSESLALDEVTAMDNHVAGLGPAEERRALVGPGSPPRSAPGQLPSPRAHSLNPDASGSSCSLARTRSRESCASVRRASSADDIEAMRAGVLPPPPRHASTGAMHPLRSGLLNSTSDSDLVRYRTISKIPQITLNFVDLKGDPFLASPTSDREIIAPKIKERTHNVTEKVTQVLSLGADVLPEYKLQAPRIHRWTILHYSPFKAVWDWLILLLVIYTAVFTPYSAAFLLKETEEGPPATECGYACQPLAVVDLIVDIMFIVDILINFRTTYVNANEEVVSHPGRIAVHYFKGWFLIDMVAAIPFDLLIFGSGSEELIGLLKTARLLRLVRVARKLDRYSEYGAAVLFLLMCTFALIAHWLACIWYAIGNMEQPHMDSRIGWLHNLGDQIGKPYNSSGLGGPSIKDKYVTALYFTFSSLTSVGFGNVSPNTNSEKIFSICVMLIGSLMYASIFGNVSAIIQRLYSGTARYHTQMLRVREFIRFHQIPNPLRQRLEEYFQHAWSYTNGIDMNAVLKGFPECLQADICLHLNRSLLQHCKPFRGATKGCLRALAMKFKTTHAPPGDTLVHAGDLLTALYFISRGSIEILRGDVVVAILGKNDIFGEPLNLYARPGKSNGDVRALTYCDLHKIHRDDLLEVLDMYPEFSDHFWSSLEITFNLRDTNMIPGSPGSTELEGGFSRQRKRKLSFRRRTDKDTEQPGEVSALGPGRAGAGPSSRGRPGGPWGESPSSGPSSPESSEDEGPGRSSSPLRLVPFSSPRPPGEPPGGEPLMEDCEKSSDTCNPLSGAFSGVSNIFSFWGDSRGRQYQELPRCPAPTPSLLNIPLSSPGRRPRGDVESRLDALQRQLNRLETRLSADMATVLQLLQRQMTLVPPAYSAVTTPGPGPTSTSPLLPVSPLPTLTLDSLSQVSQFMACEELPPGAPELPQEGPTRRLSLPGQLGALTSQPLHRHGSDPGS

Structure (SMILES): Nc1ncnc2[nH]cnc12 [adenine]
- effect of supplementation on VCC234718 toxicity (Mtb H37Rv [1]): neither adenine nor guanosine supplementation was able to rescue

Structure (SMILES): Nc1nc2c(ncn2[C@@H]2O[C@H](CO)[C@@H](O)[C@H]2O)c(=O)[nH]1 [guanosine]
- effect of supplementation on VCC234718 toxicity (Mtb H37Rv [1]): neither adenine nor guanosine supplementation was able to rescue; also recorded: failed to rescue

Structure (SMILES): Nc1nc2nc[nH]c2c(=O)[nH]1 [guanine]
- guanine concentration giving essentially complete rescue from ATc toxicity [2]: ≥ 125 µM
- rescue of Mtb from VCC234718 toxicity (Mtb H37Rv [1]; VCC234718 at 128 μM): unable to rescue

Structure (SMILES): O=C(C1CCCCC1)N1CCN(S(=O)(=O)c2cccc3cnccc23)CC1 [VCC234718, N-(5-Isoquinolinylsulfonyl)-N’-cyclohexanoyl-piperazine]
- IC50 (human ERG channel): 13700 nM
- MIC90 (Mtb SRMV2.6; Mycobacterium tuberculosis, SRMV2.6): > 100 µM
- MIC90 (Mtb SRMV2.6; strain SRMV2.6): >100 µM
- anticytolytic activity in MRC-5 fibroblasts [3]: completely inactive
- MIC90 [4]: 4 to 8 µM (≈ 1.55 to 3.1 µg/mL)
- Ki (Mtb GuaB2; Mtb GuaB2): 100 nM
- Ki (Mtb GuaB2; Mtb GuaB2, IMP as the substrate): 120 nM
- mechanism of inhibition (Mtb GuaB2; with respect to IMP and NAD+): uncompetitive
- MBC (Mtb H37Rv [5]): 16 to 32 µM (≈ 6.2 to 12.4 µg/mL)
- concentrations displaying anticytolytic activity in activated THP-1 macrophages [6]: > 1 µM
- MIC90 (Mtb SRMV2.10): 8 µM (≈ 3.1 µg/mL)
- MIC90 (Mtb SRMV2.3): 16 µM (≈ 6.2 µg/mL)
- inhibition at 20 µM (replicating H37Rv; Mycobacterium tuberculosis, H37RV, 168 h, read-out: percentage inhibition of resazurin reduction): > 80%
- MIC90 (replicating H37Rv; Mycobacterium tuberculosis, H37RV, read-out: 90% minimum inhibitory concentration (MIC90)): 5 µM (≈ 1.94 µg/mL)
- inhibition of H37Rv growth (replicating H37Rv; at 20 μM): totally inhibit
- MIC90 (Mtb H37Rv [1]; checkerboard, without guanine): 2 µM
- MIC90 (Mtb H37Rv [1]; guanine concentration of 200 μM): > 64 µM
- MIC90 (Mtb H37Rv attB::guaB2): 4 to 8 µM (≈ 1.55 to 3.1 µg/mL)
- MIC90 [7]: > 200 µM
- MIC90 ([8]; Mycobacterium tuberculosis, checkerboard, before guaB2 silencing (lowest ATc)): 2.5 µM
- MIC90 (Mtb SRMV2.6 attB::guaB2): > 200 µM
- MIC90 [9]: 2 µM (≈ 0.775 µg/mL)
- permeability (in words) [10]: very high
- inhibition of nonreplicating Mtb [11]: not significantly inhibiting
- MIC90 (Mtb H37Rv (H37RvMA)): 2 µM (≈ 0.775 µg/mL)
- metabolism (in words) [12]: highly metabolized
- whole-cell activity [13]: not against Corynebacterium glutamicum
- contribution of CYP3A4 to metabolism (in words) [14]: no contribution

Structure (SMILES): O=c1[nH]c(=O)c2nc[nH]c2[nH]1 [xanthine]
- effect of supplementation on VCC234718 toxicity (Mtb H37Rv [1]): no effect

Structure (SMILES): CC[C@@H](CO)NCCN[C@@H](CC)CO [ethambutol]
- effect of guaB2 silencing on susceptibility [8]: no effect

Structure (SMILES): [H]/N=C(/N)N[C@H]1[C@H](O)[C@@H](O)[C@H](O[C@@H]2O[C@@H](C)[C@](O)(C=O)[C@H]2O[C@@H]2O[C@@H](CO)[C@H](O)[C@@H](O)[C@@H]2NC)[C@@H](N/C(N)=N\[H])[C@@H]1O [streptomycin]
- effect of guaB2 silencing on susceptibility [8]: no effect

Structure (SMILES): C[C@H]1COc2c(N3CCN(C)CC3)c(F)cc3c(=O)c(C(=O)O)cn1c23 [levofloxacin]
- effect of guaB2 silencing on susceptibility [8]: no effect

Structure (SMILES): NNC(=O)c1ccncc1 [isoniazid]
- effect of guaB2 silencing on susceptibility [8]: no effect

Structure (SMILES): CO[C@H]1/C=C/O[C@@]2(C)Oc3c(C)c(O)c4c(O)c(c(/C=N/N5CCN(C)CC5)c(O)c4c3C2=O)NC(=O)/C(C)=C\C=C\[C@H](C)[C@H](O)[C@@H](C)[C@@H](O)[C@@H](C)[C@H](OC(C)=O)[C@@H]1C [rifampicin]
- effect of guaB2 silencing on susceptibility [8]: no effect
